US11471452B2, “Compositions and methods for treating or preventing vasomotor symptoms” (Mitsubishi Tanabe Pharma Corporation, priority 2017, dated 2022)

Assays:
[1] = tested on: female subjects experiencing Vasomotor Symptoms (VMS); experiment: Phase Ib study: frequency of vasomotor symptoms (VMS), moderate and severe VMS counted, 14 days once nightly dosing; type: in vivo, human; set-up: Mean Observed Value in VMS frequency: unit not given here
Text: (§1) Study Design: This was a Phase Ib, randomized, double blind, placebo controlled study. The study design is illustrated in FIG. 1. Following the initial Screening visit, eligible subjects was given an actigraphy event monitor (watch) to record episodes of flashing as Vasomotor symptoms (VMS) events during a period of 2 weeks during Screening, in order to confirm VMS eligibility criteria (≥7 VMS/day on average during 2 weeks). Subjects may be required to return to the site during the Screening period to read or exchange the actigraphy event monitor. Subjects deemed eligible following review of VMS data were invited to attend the Clinical research unit (CRU) for one residential period of 16 days duration, including 14 days of Investigational Medicinal Product (IMP) administration. Subjects were admitted to the CRU 1 day prior to dosing (Day-1). No medication was administered on Day-1. On Day 1, subjects who meet the study eligibility criteria were randomized to receive one dose level of either Compound A (6 subjects) or a matching placebo (2 subjects) in a double-blind manner. Randomized treatment was administered once nightly, starting on Day 1, for a total duration of 14 days.
The anticipated dose levels of Compound A to be administered are 50 mg for Cohort 1, 20 mg for Cohort 2 and 5 mg for Cohort 3. Progression to the next dose level and selection of the dose to be administered in Cohort 2 and Cohort 3 is based on emerging safety and tolerability data and available core body temperature data from the preceding dose cohort. If the dose escalation stopping criteria are met, then the dose for the subsequent cohort is reduced. […] The three cohorts are dosed sequentially with a fourth additional cohort being dosed, if necessary, to investigate other dose levels.
Five (5) mg of Compound A was administered to the female subjects experiencing Vasomotor Symptoms (VMS), and as the above-mentioned assessments, a Frequency of VMS and a Core body temperature assessment were examined.
Here a moderate VMS and a severe VMS were counted as a VMS frequency.

[2] = tested on: female subjects experiencing Vasomotor Symptoms (VMS); experiment: Phase Ib study: core body temperature assessment, change from baseline within 24 hours post-dose; type: in vivo, human; conditions: 5 mg administered group, within 24 hours post-dose on Visit Day 1 or 7; like placebo, in comparison with 20 mg and 50 mg groups
Text: as §1
The anticipated dose levels of Compound A to be administered are 50 mg for Cohort 1, 20 mg for Cohort 2 and 5 mg for Cohort 3. […]

Compound: O=C(O)c1ccc(S(=O)(=O)N(Cc2ccc(OC(F)(F)F)cc2)c2ncc3ccccc3c2C2CC2)cc1 [Compound A, 4-({(4-cyclopropylisoquinolin-3-yl)[4-(trifluoromethoxy)benzyl]amino}sulfonyl)benzoic acid]
- Effect on frequency of VMS versus placebo (FIG. 2) ([1]; 5 mg once nightly, 14 days of treatment): reduced the frequency of VMS significantly
- Onset of the reduction effect of VMS frequency ([1]; 5 mg, shown during the first night of active drug therapy or later, within a few days, compared to estrogen or Paroxetine): immediate effect
- Mean Observed Value in VMS frequency ([1]; Baseline, 5 mg Compound A group, moderate and severe VMS counted): 14.5
- Mean Observed Value in VMS frequency ([1]; Day 1, 5 mg once nightly): 9.7
- Mean Observed Value in VMS frequency ([1]; Day 2, 5 mg once nightly): 7.2
- Mean Observed Value in VMS frequency ([1]; Day 3, 5 mg once nightly): 6.3
- Mean Observed Value in VMS frequency ([1]; Day 4, 5 mg once nightly): 5.3
- Mean Observed Value in VMS frequency ([1]; Day 5, 5 mg once nightly): 8.0
- Mean Observed Value in VMS frequency ([1]; Day 6, 5 mg once nightly): 6.3
- Mean Observed Value in VMS frequency ([1]; Day 7, 5 mg once nightly): 4.7
- Mean Observed Value in VMS frequency ([1]; Day 8, 5 mg once nightly): 3.7
- Mean Observed Value in VMS frequency ([1]; Day 9, 5 mg once nightly): 4.5
- Mean Observed Value in VMS frequency ([1]; Day 10, 5 mg once nightly): 3.2
- Mean Observed Value in VMS frequency ([1]; Day 11, 5 mg once nightly): 3.7
- Mean Observed Value in VMS frequency ([1]; Day 12, 5 mg once nightly): 3.2
- Mean Observed Value in VMS frequency ([1]; Day 13, 5 mg once nightly): 3.2
- Mean Observed Value in VMS frequency ([1]; Day 14, 5 mg once nightly): 4.8
- Change from baseline in core body temperature [2]: no significant reduced the core body temperature
